Reference: patent US20230320999A1, “NON-THERAPEUTIC METHODS FOR ALLEVIATING OR REDUCING STRESS SYMPTOMS OF RUMINANTS” (DSM IP Assets B.V., priority 2018, published 2023)

Test system: rumen metabolites (Dimethylsulfone)
Assay: Rumen metabolites in rumen fluid of fistulated steers, quantified by NMR after 21 days of treatment
Assay type: in vivo, Brahman steers (Bos indicus)
Settings: for Dimethylsulfone in rumen fluid: rumen fluid 3 h post feeding, days 20 and 21, 4 steers; for Change of the methyl donor (dimethylsulfone) in rumen fluid versus control period, in words: 21 days of treatment, Brahman steers
Text: Eight fistulated Brahman steers (Bos indicus) were randomly allocated to two groups (4 animals per group) and received a forage ad libitum diet (Rhode grass hay (Chloris […]), chemical composition: DM, 917 g/kg fresh matter; in g/kg of DM: OM, 806; CP, 169; NDF, 661; ADF, 359; ADL, 46; ash, 116 and GE 17.38 MJ/kg). […] Animals were adapted to the diet over a 21 d period. After that initial period, experimental animals were placed into individual pens in an animal house for the measurement of intakes (10 d) and were treated with cyclodextrin (2 g/100 kg LW) and molasses (60 mL/d). On the last 2 days animals were placed into open-circuit respiration chambers for collection of rumen samples. […] On days 20 and 21 of treatment both groups were placed in open-circuit respiration chambers for rumen fluid collection. Rumen fluid samples (approx. 60 mL per animal) were collected using a probe with 2 layers of cheesecloth through the cannula of the animal at 3 h post feeding, during confinement in respiration chambers to determine rumen metabolites.

Row | Structure (SMILES) | Dimethylsulfone in rumen fluid (1.6 g chloroform-CD/100 kg LW for 21 days, control period value 21) | Change of the methyl donor (dimethylsulfone) in rumen fluid versus control period, in words | Dimethylsulfone in rumen fluid (2.5 g propanediol mononitrate/animal/day for 21 days, control period value 20)
1 | ClC(Cl)Cl [Chloroform, chloroform] | 80 μmol/L rumen fluid | statistically significant increase | –
2 | O=[N+]([O-])OCCCO [PDMN, 1,3-propanediol mononitrate] | – | statistically significant increase | 113 μmol/L rumen fluid
